Data reported in article PMC10320005, “In Campylobacter jejuni, a new type of chaperone receives heme from ferrochelatase” (Frontiers in Genetics, 2023).

Legend:
CgdH1 (Cj0992c) = target: T1, CgdH1 (Cj0992c) (Campylobacter jejuni, UniProt Q0P9R0); test: HPLC-MS of porphyrin products; format: biochemical; settings: 10 µM copro'gen III, 1 mM SAM, 0.5 mM NADH, E. coli cell extract added, anaerobic, overnight, room temperature; incomplete reaction via harderoporphyrin intermediate
T1 construct: full length (451 residues), C-terminal His-tag (pET-23b), E. coli BL21STAR(DE3)pLysS; Fe-S cluster reconstituted
T1 sequence (Q0P9R0 1-451): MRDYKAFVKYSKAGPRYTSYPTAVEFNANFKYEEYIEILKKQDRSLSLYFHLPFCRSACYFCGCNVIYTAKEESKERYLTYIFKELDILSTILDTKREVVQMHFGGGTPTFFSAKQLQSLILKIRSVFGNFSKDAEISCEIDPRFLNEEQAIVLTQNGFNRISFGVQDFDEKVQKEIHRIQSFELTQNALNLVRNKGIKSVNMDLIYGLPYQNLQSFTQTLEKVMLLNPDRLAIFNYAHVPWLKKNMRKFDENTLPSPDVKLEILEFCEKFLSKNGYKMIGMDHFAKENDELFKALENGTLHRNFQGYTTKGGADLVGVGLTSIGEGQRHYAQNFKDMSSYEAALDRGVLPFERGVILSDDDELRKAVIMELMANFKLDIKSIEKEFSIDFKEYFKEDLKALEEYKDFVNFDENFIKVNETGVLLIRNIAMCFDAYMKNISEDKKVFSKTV

CgdH2 (Cj0363c) = target: T2, CgdH2 (Cj0363c) (Campylobacter jejuni, UniProt Q0PBE7); test: UV-visible titration of apo-protein, absorbance difference at […] nm; format: binding
T2 construct: gene hemN; full length (448 residues; 447 aa in Discussion), C-terminal His-tag (pET-23b), E. coli BL21STAR(DE3)pLysS; apo-form without Fe-S cluster
T2 sequence (Q0PBE7 1-448): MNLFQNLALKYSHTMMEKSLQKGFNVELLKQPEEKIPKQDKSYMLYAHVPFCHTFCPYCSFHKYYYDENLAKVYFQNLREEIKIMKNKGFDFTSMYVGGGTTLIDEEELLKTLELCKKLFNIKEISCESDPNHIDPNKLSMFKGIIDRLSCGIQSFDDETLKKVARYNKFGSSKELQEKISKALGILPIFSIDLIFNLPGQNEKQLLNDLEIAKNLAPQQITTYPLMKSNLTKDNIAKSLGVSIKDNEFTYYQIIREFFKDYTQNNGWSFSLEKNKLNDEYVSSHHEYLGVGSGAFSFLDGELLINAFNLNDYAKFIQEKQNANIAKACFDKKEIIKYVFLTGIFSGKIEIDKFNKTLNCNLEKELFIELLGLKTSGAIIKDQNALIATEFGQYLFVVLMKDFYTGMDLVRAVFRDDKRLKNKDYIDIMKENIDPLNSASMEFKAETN

PgdH2 (Cj0362) = target: T3, PgdH2 (Cj0362) (Campylobacter jejuni, UniProt Q0PBE8); test: fluorescence of protoporphyrin IX ([…] nm) with E. coli membrane fraction versus empty plasmid; format: biochemical; settings: 500 nM proto'gen IX, 150 mM NaCl, 20% glycerol, 5 mM DTT, Tris-HCl pH 8, aerobic
T3 construct: expressed from pPR-IBA2 (Strep-tag vector) in E. coli BL21STAR(DE3)pLysS; membrane fraction, not purified
T3 sequence (Q0PBE8 1-150): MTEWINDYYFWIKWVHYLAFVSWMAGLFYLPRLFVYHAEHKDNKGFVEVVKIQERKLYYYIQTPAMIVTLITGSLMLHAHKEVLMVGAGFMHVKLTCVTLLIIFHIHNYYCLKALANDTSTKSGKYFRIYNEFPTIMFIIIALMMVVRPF

PpfC (Cj0503c) = target: T4, PpfC (Cj0503c) (Campylobacter jejuni, UniProt Q9PI08); test: ferrochelatase activity, decrease of protoporphyrin IX at […] nm; format: biochemical; settings: 10 µM protoporphyrin IX, 20 µM (NH4)2Fe(SO4)2, 5 mM DTT, 150 mM NaCl, 20% glycerol, Tris-HCl pH 8, anaerobic, room temperature
T4 construct: gene hemH; N-terminal Strep-tag (pPR-IBA2), E. coli BL21STAR(DE3)pLysS, solubilised with Triton X-100
T4 sequence (Q9PI08 1-303): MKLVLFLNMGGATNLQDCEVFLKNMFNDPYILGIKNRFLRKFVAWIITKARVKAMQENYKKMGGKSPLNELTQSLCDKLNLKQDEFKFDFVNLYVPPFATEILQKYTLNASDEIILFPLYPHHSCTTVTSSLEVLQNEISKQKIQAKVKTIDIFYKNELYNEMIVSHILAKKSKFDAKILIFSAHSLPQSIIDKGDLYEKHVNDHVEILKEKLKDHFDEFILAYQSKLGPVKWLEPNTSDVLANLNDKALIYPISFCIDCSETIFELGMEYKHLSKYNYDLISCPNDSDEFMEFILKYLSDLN

UroD (Cj1243) = target: T5, UroD (Cj1243) (Campylobacter jejuni, UniProt Q9PN54); test: linked assay, UV-visible spectroscopy and HPLC-MS of coproporphyrin III; format: biochemical; settings: uro'gen III made in situ from porphobilinogen with D. vulgaris PbgS and UroS; Tris-HCl pH 8, anaerobic, overnight
T5 construct: gene hemE; N-terminal Strep-tag (pPR-IBA2), E. coli BL21STAR(DE3)pLysS
T5 sequence (Q9PN54 1-340): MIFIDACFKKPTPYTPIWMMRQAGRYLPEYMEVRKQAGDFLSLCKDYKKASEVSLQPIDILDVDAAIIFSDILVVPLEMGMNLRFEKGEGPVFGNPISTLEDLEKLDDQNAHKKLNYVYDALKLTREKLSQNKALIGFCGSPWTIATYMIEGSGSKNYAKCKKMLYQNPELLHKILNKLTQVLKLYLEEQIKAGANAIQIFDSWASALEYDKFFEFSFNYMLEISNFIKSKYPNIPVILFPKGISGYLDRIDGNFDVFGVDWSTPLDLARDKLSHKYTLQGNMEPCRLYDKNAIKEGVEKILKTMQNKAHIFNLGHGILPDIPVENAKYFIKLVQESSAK

Question: How did the “HPLC-MS of porphyrin products” value (CgdH1 (Cj0992c)) turn out when `Cc1c2[nH]c(c1CCC(=O)O)Cc1[nH]c(c(CCC(=O)O)c1C)Cc1[nH]c(c(CCC(=O)O)c1C)Cc1[nH]c(c(C)c1CCC(=O)O)C2` [copro'gen III] was run?
Answer: The value was “The expected final reactional product, protoporphyrin IX (the oxidized form of proto'gen IX), was observed”.

Question: With `C=CC1=C(C)C2=Cc3c(C=C)c(C)c4[n]3[Fe]([Cl])[n]3c(c(C)c(CCC(=O)O)c3=CC3=NC(=C4)C(C)=C3CCC(=O)O)=CC1=N2` [hemin] as the compound, how does the Kd (CgdH2 (Cj0363c)) read?
Answer: Its Kd is 4.9 ± 1 µM.

Question: With `C=Cc1c2[nH]c(c1C)Cc1[nH]c(c(CCC(=O)O)c1C)Cc1[nH]c(c(C)c1CCC(=O)O)Cc1[nH]c(c(C)c1C=C)C2` [proto'gen IX] as the compound, how does the “fluorescence of protoporphyrin IX (390/630 nm) with E. coli membrane fraction ve” value (PgdH2 (Cj0362)) read?
Answer: The value was “Cells containing Cj0362 exhibited much higher activity for the oxidation of proto'gen IX”.

Question: For `C=CC1=C(C)c2cc3[nH]c(cc4nc(cc5[nH]c(cc1n2)c(C)c5CCC(=O)O)C(CCC(=O)O)=C4C)c(C)c3C=C` [protoporphyrin IX], which “ferrochelatase activity, decrease of protoporphyrin IX at 408 nm” value (PpfC (Cj0503c)) is on record?
Answer: The value was “C. jejuni Cj0503c exhibits a ferrochelatase specific activity”.

Question: `O=C(O)CCc1c2[nH]c(c1CC(=O)O)Cc1[nH]c(c(CC(=O)O)c1CCC(=O)O)Cc1[nH]c(c(CC(=O)O)c1CCC(=O)O)Cc1[nH]c(c(CCC(=O)O)c1CC(=O)O)C2` [uro'gen III] was tested. Which “linked assay, UV-visible spectroscopy and HPLC-MS of coproporphyrin III” value (UroD (Cj1243)) did it give?
Answer: The value was “confirmed the formation of copro'gen III”.
